From ChEMBL document CHEMBL5543154, “Structural Elucidation and Antiviral Activity of Covalent Cathepsin L Inhibitors” (J Med Chem, 2024) come the findings set out here.

The subject of data set [1] is SARS-CoV-2. Nature of the data set: Antiviral activity against SARS CoV-2 USA-WA1/2020 infected in african green monkey Vero 76 cells assessed as virus-induced cytopathic effect incubated for 5 days by neutral red uptake assay. It counts as functional, organism-based. Conditions: Severe acute respiratory syndrome coronavirus 2, USA-WA1/2020, Vero 76, 120 h.
The subject of data set [2] is SARS-CoV-2. It counts as functional, Severe acute respiratory syndrome coronavirus 2, Omicron, Vero. Conditions: dose 100 nM; time 24 hrs.
Data set [3] is described as follows: Cytotoxicity against african green monkey Vero 76 cells assessed as reduction in cell viability incubated for 48 hrs by neutral red uptake assay. It counts as toxicity, cell-based. Conditions: chlorocebus sabaeus.
Data set [4] has as its target Procathepsin L (Homo sapiens) (UniProt P07711). The data set is described as follows: Binding affinity to Cathepsin L (unknown origin) expressed in Komagataella pastoris GS115 assessed as thermal stabilization by mesuring melting temperature by nanoDSF analysis.

Procathepsin L (Homo sapiens), sequence (P07711 114-333 limits assumed): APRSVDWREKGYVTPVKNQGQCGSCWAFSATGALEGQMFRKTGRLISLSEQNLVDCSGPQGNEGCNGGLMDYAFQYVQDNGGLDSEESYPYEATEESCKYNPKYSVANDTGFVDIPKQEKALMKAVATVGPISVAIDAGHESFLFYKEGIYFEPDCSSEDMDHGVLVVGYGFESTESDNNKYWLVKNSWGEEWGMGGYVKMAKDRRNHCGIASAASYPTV

Consider `CCCC(NC(=O)C(CC(C)C)NC(=O)OCc1ccccc1)C(=O)C(=O)NCc1ccccn1` (centres undefined), for which the EC50 in data set [1] is less than 1 µM. The Activity in data set [2] worked out at 50%. In addition, in data set [3], the CC50 at 48 h was more than 50 µM.

Turning to `CN(C)C(=O)C(Cc1ccccc1)NC(=O)[C@H]1O[C@@H]1C(=O)NCCc1ccccn1` (relative stereo), in data set [4], the ΔTm stood at 12 °C.
